Laboratory results reported in patent US20150307520A1, “NOVEL HETEROARYL AND HETEROCYCLE COMPOUNDS, COMPOSITIONS AND METHODS THEREOF” (HUTCHISON MEDIPHARMA LIMITED, priority 2012, published 2015).

How the values were obtained:
Type in all cases: biochemical
[1] = molecular target: p110γ (Homo sapiens, UniProt P48736); assay: Transcreener KINASE Assay, kinase inhibition of p110γ; settings: for PI3Kγ IH % @ 1 uM: 1 uM test compound; for IC50: read-out: PI3Kγ IC50
Method in brief: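 Steps: enzyme reaction with compound, 80 min at room temperature; add ADP detection reagent, incubate 60 min at room temperature; read fluorescence polarization. Inhibition and IC50 values are derived from the ADP signal.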

[2] = molecular target: p110β/p85α (Homo sapiens, UniProt P42338); assay: Transcreener KINASE Assay, kinase inhibition of p110β/p85α; settings: for PI3Kβ IH % @ 1 uM: 1 uM test compound; for IC50: read-out: PI3Kβ IC50
Chain of p110β/p85α (P42338 whole entry): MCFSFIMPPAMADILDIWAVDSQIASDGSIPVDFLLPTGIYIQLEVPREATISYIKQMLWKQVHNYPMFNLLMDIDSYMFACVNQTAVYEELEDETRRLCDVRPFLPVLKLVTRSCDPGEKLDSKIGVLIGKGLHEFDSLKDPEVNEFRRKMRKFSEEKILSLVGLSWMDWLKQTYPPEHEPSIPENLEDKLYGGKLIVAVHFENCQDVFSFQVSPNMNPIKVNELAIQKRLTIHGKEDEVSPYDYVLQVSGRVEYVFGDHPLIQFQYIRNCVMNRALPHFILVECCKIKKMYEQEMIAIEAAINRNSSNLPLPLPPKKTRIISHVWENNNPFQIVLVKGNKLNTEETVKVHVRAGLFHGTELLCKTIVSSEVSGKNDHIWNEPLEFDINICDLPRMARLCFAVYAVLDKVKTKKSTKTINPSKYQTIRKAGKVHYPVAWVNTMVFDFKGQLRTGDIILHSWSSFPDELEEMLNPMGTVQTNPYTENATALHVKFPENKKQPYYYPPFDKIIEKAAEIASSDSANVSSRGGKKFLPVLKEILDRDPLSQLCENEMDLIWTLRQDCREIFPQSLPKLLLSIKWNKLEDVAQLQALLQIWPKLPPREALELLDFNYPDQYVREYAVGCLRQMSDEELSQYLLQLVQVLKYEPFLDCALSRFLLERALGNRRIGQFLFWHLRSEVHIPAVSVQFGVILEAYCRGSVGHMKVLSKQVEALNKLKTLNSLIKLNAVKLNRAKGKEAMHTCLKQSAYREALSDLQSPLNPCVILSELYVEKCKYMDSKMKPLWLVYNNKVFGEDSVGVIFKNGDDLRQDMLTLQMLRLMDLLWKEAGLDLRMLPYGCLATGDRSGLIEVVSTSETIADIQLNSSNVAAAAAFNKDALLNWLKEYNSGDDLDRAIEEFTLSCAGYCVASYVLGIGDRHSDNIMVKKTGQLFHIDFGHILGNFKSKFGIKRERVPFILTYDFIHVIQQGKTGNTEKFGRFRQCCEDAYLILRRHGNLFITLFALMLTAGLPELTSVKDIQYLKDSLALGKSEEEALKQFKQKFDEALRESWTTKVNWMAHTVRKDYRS
Chain of p110β/p85α (P27986 2-724 partner): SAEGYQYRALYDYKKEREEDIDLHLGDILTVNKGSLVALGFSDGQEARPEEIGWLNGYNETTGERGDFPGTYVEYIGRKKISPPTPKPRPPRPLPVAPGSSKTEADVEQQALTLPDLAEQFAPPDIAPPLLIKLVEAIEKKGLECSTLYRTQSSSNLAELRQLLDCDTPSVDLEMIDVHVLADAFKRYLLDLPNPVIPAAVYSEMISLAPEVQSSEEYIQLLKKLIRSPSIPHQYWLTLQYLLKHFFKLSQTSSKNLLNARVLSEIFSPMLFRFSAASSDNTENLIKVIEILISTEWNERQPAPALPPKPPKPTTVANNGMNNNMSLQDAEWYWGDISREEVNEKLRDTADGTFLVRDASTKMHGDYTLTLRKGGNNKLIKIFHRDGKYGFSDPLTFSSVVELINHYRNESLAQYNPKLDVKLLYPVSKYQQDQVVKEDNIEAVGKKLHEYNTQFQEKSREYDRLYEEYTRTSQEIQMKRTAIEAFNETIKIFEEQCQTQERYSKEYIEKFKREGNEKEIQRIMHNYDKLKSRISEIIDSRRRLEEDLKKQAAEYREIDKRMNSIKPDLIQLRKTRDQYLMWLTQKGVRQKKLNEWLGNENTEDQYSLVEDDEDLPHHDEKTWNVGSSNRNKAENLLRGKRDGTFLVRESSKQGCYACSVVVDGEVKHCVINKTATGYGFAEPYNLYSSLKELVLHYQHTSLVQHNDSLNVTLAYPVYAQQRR
Method in brief: (§1)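 Recombinant human PI3K heterodimers (p110/p85α) incubated with compound (2% DMSO final) in HEPES/NaCl/EGTA/CHAPS/MgCl2/DTT buffer with 30 uM PIP2 and 10 uM ATP (as added) for 80 min at room temperature.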

[3] = molecular target: p110δ/p85α (Homo sapiens, UniProt O00329); assay: Transcreener KINASE Assay, kinase inhibition of p110δ/p85α; settings: for PI3Kδ IH % @ 1 uM: 1 uM test compound; for IC50: read-out: PI3Kδ IC50
Chain of p110δ/p85α (O00329 whole entry): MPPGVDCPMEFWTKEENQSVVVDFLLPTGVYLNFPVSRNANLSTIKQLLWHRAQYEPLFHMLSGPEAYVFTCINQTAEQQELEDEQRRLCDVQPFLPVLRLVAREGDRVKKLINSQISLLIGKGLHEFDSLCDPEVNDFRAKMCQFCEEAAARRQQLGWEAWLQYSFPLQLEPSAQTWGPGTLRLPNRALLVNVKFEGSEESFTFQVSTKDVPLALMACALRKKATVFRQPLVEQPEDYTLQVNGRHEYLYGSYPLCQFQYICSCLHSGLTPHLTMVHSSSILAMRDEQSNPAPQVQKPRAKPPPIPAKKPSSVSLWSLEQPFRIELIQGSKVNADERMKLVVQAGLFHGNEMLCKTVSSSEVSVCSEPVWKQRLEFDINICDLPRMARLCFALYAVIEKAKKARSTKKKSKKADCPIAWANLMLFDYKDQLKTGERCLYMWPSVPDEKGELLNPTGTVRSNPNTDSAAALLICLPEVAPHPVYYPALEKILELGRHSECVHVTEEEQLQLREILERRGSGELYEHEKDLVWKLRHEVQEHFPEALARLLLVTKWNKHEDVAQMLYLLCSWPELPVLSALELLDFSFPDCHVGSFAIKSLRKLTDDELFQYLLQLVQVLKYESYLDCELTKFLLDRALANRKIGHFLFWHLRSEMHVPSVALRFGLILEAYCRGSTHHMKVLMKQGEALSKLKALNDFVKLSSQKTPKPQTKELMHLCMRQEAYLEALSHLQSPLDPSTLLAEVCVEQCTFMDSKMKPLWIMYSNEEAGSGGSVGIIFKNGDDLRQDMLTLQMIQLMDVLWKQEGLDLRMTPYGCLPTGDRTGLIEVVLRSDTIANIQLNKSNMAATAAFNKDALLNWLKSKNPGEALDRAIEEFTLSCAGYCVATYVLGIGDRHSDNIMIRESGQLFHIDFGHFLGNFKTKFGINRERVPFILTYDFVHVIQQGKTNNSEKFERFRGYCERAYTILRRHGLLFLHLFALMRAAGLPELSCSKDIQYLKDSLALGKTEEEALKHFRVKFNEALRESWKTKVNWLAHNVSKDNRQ
Chain of p110δ/p85α (P27986 whole entry partner): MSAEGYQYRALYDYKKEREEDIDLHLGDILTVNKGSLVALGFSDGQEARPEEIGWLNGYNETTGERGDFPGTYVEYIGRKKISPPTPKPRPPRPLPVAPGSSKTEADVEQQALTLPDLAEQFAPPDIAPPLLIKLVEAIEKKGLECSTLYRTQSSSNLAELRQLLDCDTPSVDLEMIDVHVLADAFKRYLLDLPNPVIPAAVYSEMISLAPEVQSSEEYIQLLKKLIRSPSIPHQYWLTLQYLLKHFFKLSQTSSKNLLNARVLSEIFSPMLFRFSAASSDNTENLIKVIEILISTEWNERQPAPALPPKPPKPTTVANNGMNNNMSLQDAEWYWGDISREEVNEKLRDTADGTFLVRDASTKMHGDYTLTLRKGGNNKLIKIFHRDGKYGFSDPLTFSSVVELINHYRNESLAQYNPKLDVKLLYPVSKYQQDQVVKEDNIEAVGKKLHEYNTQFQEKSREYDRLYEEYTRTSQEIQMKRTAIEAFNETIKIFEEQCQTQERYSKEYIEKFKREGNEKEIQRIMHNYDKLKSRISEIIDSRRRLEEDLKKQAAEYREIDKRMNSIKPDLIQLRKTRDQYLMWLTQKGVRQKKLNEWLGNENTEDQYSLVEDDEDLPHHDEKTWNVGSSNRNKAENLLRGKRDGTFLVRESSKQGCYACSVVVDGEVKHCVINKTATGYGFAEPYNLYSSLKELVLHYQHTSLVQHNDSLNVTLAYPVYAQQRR
Method in brief: as §1

Chain of p110γ (P48736 whole entry): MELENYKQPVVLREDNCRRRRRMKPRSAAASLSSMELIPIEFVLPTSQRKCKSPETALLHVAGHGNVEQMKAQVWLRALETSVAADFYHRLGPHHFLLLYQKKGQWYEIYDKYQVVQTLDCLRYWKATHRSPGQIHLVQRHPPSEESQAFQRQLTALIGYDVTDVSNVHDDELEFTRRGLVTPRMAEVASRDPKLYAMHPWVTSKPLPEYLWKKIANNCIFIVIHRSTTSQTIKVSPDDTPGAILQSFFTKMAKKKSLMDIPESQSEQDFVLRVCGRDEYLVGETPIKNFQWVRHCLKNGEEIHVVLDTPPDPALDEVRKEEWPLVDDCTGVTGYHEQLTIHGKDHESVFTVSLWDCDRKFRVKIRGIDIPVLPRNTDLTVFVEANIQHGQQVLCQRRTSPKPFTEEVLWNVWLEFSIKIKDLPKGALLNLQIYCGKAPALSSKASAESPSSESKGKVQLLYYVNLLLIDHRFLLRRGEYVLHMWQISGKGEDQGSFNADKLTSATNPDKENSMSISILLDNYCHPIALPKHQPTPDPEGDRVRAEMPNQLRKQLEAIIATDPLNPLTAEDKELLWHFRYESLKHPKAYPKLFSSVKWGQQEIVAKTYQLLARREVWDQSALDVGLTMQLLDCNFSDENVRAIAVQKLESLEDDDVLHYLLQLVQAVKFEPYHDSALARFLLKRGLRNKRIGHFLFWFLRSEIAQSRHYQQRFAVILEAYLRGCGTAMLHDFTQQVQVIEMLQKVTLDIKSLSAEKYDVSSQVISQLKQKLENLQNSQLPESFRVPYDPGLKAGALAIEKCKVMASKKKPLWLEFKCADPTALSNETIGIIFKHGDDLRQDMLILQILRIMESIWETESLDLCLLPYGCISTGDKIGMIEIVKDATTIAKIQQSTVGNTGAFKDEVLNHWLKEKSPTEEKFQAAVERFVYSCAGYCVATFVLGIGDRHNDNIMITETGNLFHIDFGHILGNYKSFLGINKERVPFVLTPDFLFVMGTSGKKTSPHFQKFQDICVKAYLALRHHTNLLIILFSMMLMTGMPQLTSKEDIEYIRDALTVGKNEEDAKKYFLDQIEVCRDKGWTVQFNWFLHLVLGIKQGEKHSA

SMILES | PI3Kγ IH % @ 1 uM [1] [%] | IC50 [1] [µM] | PI3Kβ IH % @ 1 uM [2] [%] | PI3Kδ IH % @ 1 uM [3] [%] | IC50 [3] [µM] | IC50 [2] [µM]
CS(=O)(=O)c1cccc(-n2c([C@@H]3CCCN3c3ncnc4[nH]cc(C#N)c34)nn3ccc(Cl)c3c2=O)c1 [Compound 192] | >100 | 0.018 | 65.3 | 98.5 | 0.004 | 
CS(=O)(=O)c1cccc(-n2c([C@@H]3CCCN3c3ncnc4[nH]cnc34)nn3ccc(Cl)c3c2=O)c1 [Compound 193] | 93.7 | 0.121 | 31.5 | >100 | 0.023 | 
N#Cc1c(N)ncnc1N1CC[C@H]1c1nn2ccc(Br)c2c(=O)n1-c1ccccc1 [Compound 194] | 75.1 | 0.15 | 29.5 | >100 | 0.023 | 
C[S+]([O-])c1c[nH]c2ncnc(N3CC[C@H]3c3nn4ccc(Cl)c4c(=O)n3-c3ccccc3)c12 (some centres unmarked) [Compound 196] | >100 | 0.065 | 32.3 | 97.1 | 0.069 | 
C[S+]([O-])c1c[nH]c2ncnc(N3CC[C@H]3c3nn4ccc(Cl)c4c(=O)n3-c3ccc(F)cc3)c12 (some centres unmarked) [Compound 199] | 94.6 | 0.034 | 17.1 | 59.5 | 2 | 
CNc1ncnc(N2CCC[C@H]2c2nn3ccc(Cl)c3c(=O)n2-c2ccccc2)n1 [Compound 200] | 93.4 | 0.19 | 28.2 | 90.9 | 0.196 | 
Cc1nc(N)nc(N2CCC[C@H]2c2nn3ccc(Cl)c3c(=O)n2-c2ccccc2)n1 [Compound 201] | >100 | 0.049 | 25.3 | >100 | 0.019 | 
O=c1c2c(Cl)ccn2nc([C@@H]2CCCCN2c2ncnc3[nH]cnc23)n1-c1ccccc1 [Compound 203] | 65.3 |  | 23.3 | 94.6 | 0.1 | 
C[S+]([O-])c1c[nH]c2ncnc(N3CC[C@H]3c3nn4ccc(F)c4c(=O)n3-c3ccccc3)c12 (some centres unmarked) [Compound 204] | 84.2 | 0.25 | 28.9 | 85.1 | 0.109 | 
Cc1nc(N)nc(N2CC[C@H]2c2nn3ccc(Cl)c3c(=O)n2-c2ccccc2)n1 [Compound 205] | 76.1 | 0.229 | 21.6 | 76.1 | 0.074 | 
N#Cc1cnc(N)nc1N1CCC[C@H]1c1nn2ccc(Cl)c2c(=O)n1-c1ccccc1 [Compound 207] | >100 |  | 80.4 | >100 | 0.001 | 0.298
CC(=O)c1c[nH]c2ncnc(N3CCC[C@H]3c3nn4ccc(Cl)c4c(=O)n3-c3ccc(F)cc3)c12 [Compound 208] | 92.2 | 0.003 | 81.7 | 97.4 | 0.004 | 0.089
C[S+]([O-])c1c[nH]c2ncnc(N3CCC[C@H]3c3nn4ccc(Cl)c4c(=O)n3-c3ccc(F)cc3)c12 (some centres unmarked) [Compound 209] | 89.6 | 0.03 | 53.5 | 94.2 | 0.012 | 
CC(=O)c1c[nH]c2ncnc(N3CCC[C@H]3c3nn4ccc(Cl)c4c(=O)n3-c3cccc(F)c3)c12 [Compound 210] | 92.0 |  | 69.1 | 98.6 | 0.002 | 0.191
CC(=O)c1c[nH]c2ncnc(N3CCC[C@H]3c3nn4ccc(Cl)c4c(=O)n3-c3ccccc3)c12 [Compound 211] | 92.2 |  | 88.3 | 98.4 | 0.0005 | 0.051
N#Cc1cnc(N)nc1N1CC[C@H]1c1nn2ccc(Cl)c2c(=O)n1-c1ccccc1 [Compound 212] | >100 |  | 37.0 | 95.3 | 0.012 | 
O=c1c2c(Cl)ccn2nc([C@@H]2C[C@H](F)CN2c2ncnc3[nH]cnc23)n1-c1cccc(F)c1 [Compound 214] | >100 | 0.012 | 65.7 | 99.7 | 0.001 | 0.271
Nc1ncc(F)c(N2CCC[C@H]2c2nn3ccc(Cl)c3c(=O)n2-c2ccccc2)n1 [Compound 215] | 88.1 | 0.135 | 32.8 | 98.5 | 0.052 | 
CC(=O)c1c[nH]c2ncnc(N3C[C@@H](F)C[C@H]3c3nn4ccc(Cl)c4c(=O)n3-c3cccc(F)c3)c12 [Compound 216] | 91.8 | 0.003 | 65.1 | 96.5 | 0.002 | 
CC(=O)c1c[nH]c2ncnc(N3CCC[C@H]3c3nn4ccc(F)c4c(=O)n3-c3ccccc3)c12 [Compound 218] | 95.7 |  | 85.0 | 97.3 | 0.002 | 0.165
C[S+]([O-])c1c[nH]c2ncnc(N3CCC[C@H]3c3nn4ccc(F)c4c(=O)n3-c3ccccc3)c12 (some centres unmarked) [Compound 219] | 87.4 | 0.014 | 75.1 | 98.4 | 0.003 | 0.358
O=c1c2c(Cl)ccn2nc([C@@H]2CCCN2c2ncnc3[nH]nnc23)n1-c1ccccc1 [Compound 220] | 54.8 |  | 25.1 | 84.8 | 0.242 | 
